Measured values taken from US12274686B2, “Specialized pro-resolving mediators (SPMs) as melanocyte growth promoter and pro-survival factors and uses thereof” (THE UNIVERSITY OF BRITISH COLUMBIA, priority 2021, dated 2025).

Tests used:
[1] = test system: primary human epidermal melanocytes; experiment: Melanocyte survival assay in vitro (growth factor supplement withdrawn), CellTiter-Blue viability; type: cell-based; settings: for ability to protect melanocytes: physiological distress
Method: Human neonatal epidermal melanocytes (HEMn-DP) were purchased from ThermoFisher Scientific™ (C-202-5C). Melanocytes were cultured in full growth medium (Medium 254 supplemented with Human Melanocyte Growth Supplement, both purchased from ThermoFisher Scientific™. Cells were expanded and passaged 3 times before conducting the assay. 4×10^3 melanocytes per well were seeded into 96 well plate and allowed to recover for 4 hours before the treatment was added for each condition in 100 μl final volume. Cells were treated and kept in 37° C., 5% CO2 for 3 days. Viability assay was conducted using CellTiter-Blue Cell Viability Assay Kit™ (Promega™, G8080) and signal was measured using GlowMax™ plate reader (Promega™) after 4 hours at 37° C., 5% CO2. Merasin 1 (Cayman™) was diluted into 1 μg/ml using PBS and added to the culture medium at concentrations ranging from 0 to 1 μg/ml. For survival assays, the procedure was essentially the same as proliferation assay except that melanocytes were kept in M254 medium without human melanocyte growth supplement. The assays were conducted in triplicates.

vitiligo patches = experiment: Topical treatment of vitiligo patches refractory to topical anti-inflammatory therapies (single subject); type: in vivo, human; settings: for change in the size of the white areas: mometasone fumarate 0.1% cream BID (abdominal macule), clobetasol 0.05% cream OD (two patches right hand), 12 months
Method: Topical maresin 1 was tested on a person with a 5 year and 3 month history of developing two white patches on the dorsal right hand and one white macule on the right mid abdomen. […] There were no signs of inflammation such as redness, or presence of scales. There were no symptoms such as itchiness or pain. […] On examination, the subject appeared to be well. Complete skin examination was performed. The entire skin appeared to be normal aside from three lesions of depigmentation: (1) a 1.5×1.2 cm white patch on the mid right abdomen; (2) a 1.3×1.0 cm white patch on the dorsum of right third metacarpal head; and (3) a 1.0×0.8 cm sized white macule on the dorsum of right 4th metacarpal head.

[2] = test system: skin resident M2 macrophages; experiment: Skin resident M1 (CD80+) / M2 (CD163+) macrophages by flow cytometry in B6 mice with or without maresin 1; type: in vivo, C57BL/J6 mice
Method: For isolation of macrophages from murine skin: 1 cm×1 cm sized skin samples were cut into small pieces, placed in a solution of PBS containing 1 mg/ml dispase (Roche™) and incubated for 1 hour at 37° C. The samples were then transferred into RPMI containing 1 mg/ml Collagenase IV and 0.1 mg/ml DNAse (Sigma Aldrich™) and incubated for 90 minutes at 37° C. Single cell suspension was prepared by passing through 100 μm strainer. Cells were washed and stained in PBS without Ca^2+ and Mg^2+ supplemented with 1% heat-inactivated FCS. Cell surface staining panel included anti-mouse CD163-BV421™, CD80-Alexa fluor 647™, and CD11b-Percp Cy5.5™ (Biolegend™) for 30 minutes at 4° C. Cells were washed with PBS and analyzed with LSRII™ cell sorter (BD Biosciences™).
Eight week old female C57BL/J6 mice were ordered from The Jackson Laboratory™, and fed a standard diet of Animal Care Facility of Vancouver Coastal Health Research institute (4 mice/cage). For induction of vitiligo, mice were immunized by intradermal injections (ID, starting at Day 0) at the left hock, and repeated at 2-week, using the method described by S. You et al. that efficiently induces melanocyte specific CD8+ T cell responses^(53). […] Immunization response score was recorded at 48 hours after the first immunization by evaluating the redness and swelling (0=none, 1=mild, 2=moderate, 3=severe). […]

B6 mouse Vitiligo model = experiment: B6 mouse model of vitiligo with TRP2 immunization; type: in vivo, C57BL/J6 mice
Text: ([…], Deming Regression). * p<0.05 (two tailed t test).
Eight week old female C57BL/J6 mice were ordered from The Jackson Laboratory™, and fed a standard diet of Animal Care Facility of Vancouver Coastal Health Research institute (4 mice/cage). For induction of vitiligo, mice were immunized by intradermal injections (ID, starting at Day 0) at the left hock, and repeated at 2-week, using the method described by S. You et al. that efficiently induces melanocyte specific CD8+ T cell responses^(53). The immunogen consisted of TRP2-180 (50 μg) peptide mixed with LPS (5 μg) and CpG ODN 1826 (5 μg) in 50 μL of PBS solution per mouse per injection. Immunization response score was recorded at 48 hours after the first immunization by evaluating the redness and swelling (0=none, 1=mild, 2=moderate, 3=severe). For assessing macrophage M1 and M2 populations, the TRP-immunized and non-immunized mice were anaesthetized 48 hours after immunization for skin sampling at the immunization site and used for cell isolation as described above.
For assessing the effects of maresin 1 treatment, C57BL/J6 mice were randomly assigned to the sham injection control group (200 μl saline IP, n=20) and the Maresin 1 injection group (800 ng in 200 μl saline IP, n=20). […] Mice were monitored 5 times per week and evaluated using a Depigmentation Area Scoring Template (0-5) (FIG. 5C). […]

B6 mouse canities model = experiment: B6 mouse model of canities (spontaneous hair greying) and aging-associated weight gain; type: in vivo, C57BL/J6 mice; settings: 800 ng maresin 1 IP three times a week
Text: To observe aging-associated spontaneous hair greying (canities), C57BL/J6 mice aged 8 weeks were purchased from JAX Labs™ and kept in standard conditions for 8 weeks. The fur color as well as overall appearance and behaviors were monitored daily by visual inspection and by photography. By 6-8 weeks, about 20-40% of the mice would develop spontaneous canities. At the end of observation, central venous blood was collected and used for ELISA analysis using maresin 1 ELISA kit (Caymen Chemicals™) following the manufacturers' recommended protocol with purified maresin 1 serving as the chemical standard.
C57BL/J6 mice from The Jackson Laboratory™, 8 weeks of age were divided into two groups that received intraperitoneal injections of maresin 1 (800 ng in 100 μl saline) or saline alone three times a week for 6 weeks. […] At the end of the experiment, the mice were photographed and weighed.

[3] = cultured human epidermal melanocytes

CC/C=C\C[C@H](O)\C=C/C=C/C=C/[C@H](O)C/C=C\C/C=C\CCC(=O)O [protectin D1, 10R,17S-dihydroxy-4Z,7Z,11E,13E,15Z,19Z-docosahexaenoic acid]
ability to protect melanocytes [1, 3]: show ability to protect melanocytes

CCCCC[C@@H](O)[C@H](O)/C=C/C=C/C=C\C=C\[C@@H](O)CCCC(=O)O [lipoxin B4, 5S,14R,15S-trihydroxy-6E,8Z,10E,12E-eicosatetraenoic acid]
ability to protect melanocytes [1, 3]: show ability to protect melanocytes

mometasone fumarate [reference compound]
change in the size of the white areas (vitiligo patches): did not notice any change

C[C@H]1C[C@H]2[C@@H]3CCC4=CC(=O)C=C[C@]4(C)[C@@]3(F)[C@@H](O)C[C@]2(C)[C@@]1(O)C(=O)CCl [clobetasol, reference compound]
change in the size of the white areas (vitiligo patches): did not notice any change

CC[C@@H](O)/C=C/C=C\C[C@@H](O)/C=C/C=C/C=C\[C@@H](O)CCCC(=O)O [resolvin E1, 5S,12R,18R-trihydroxy-6Z,8E,10E,14Z,16E-eicosapentaenoic acid]
ability to protect melanocytes [1, 3]: show ability to protect melanocytes

CC/C=C\C/C=C\C[C@H](O)\C=C/C=C/C=C/[C@H](O)C/C=C\CCC(=O)O [maresin 1, 7R, 14S-dihydroxy-4Z, 8E, 10E, 12Z, 16Z, 19Z-docosahexaenoic acid]
post-immunization M2/M1 ratio at the TRP2 immunization site ([2]; maresin 1 800 ng/mouse IP pretreatment, skin 48 hours after TRP2 immunization, CD163+/CD80+ cells): restoring the post-immunization M2/M1 ratio to a level above the pre-immunization state | M2/M1 ratio in the skin of B6 mice ([2]; maresin 1 treatment, increase from 0.44): 5.34 | vitiligo development (average depigmentation score at immunization site) (B6 mouse Vitiligo model; maresin 1 800 ng/mouse IP three times per week for 8 weeks vs saline (sham)): significant reduction of vitiligo development | immunization response (peak score, erythema + edema) (B6 mouse Vitiligo model; maresin 1 800 ng/mouse IP, 48 hours after TRP2 immunization, vs saline): significantly reduced the immunization response | canities development (B6 mouse canities model; saline control 15% by 15 weeks of age, p<0.0125 Log Rank): completely blocked | aging associated weight gain (B6 mouse canities model; saline control 17.7%, p=0.0423): 14.2% | ability to protect melanocytes [1, 3]: show ability to protect melanocytes | melanocyte depletion (surviving melanocytes) after growth factor supplement withdrawal ([1]; maresin 1 10 to 300 ng/ml, three days, p<0.01): significant reduction of melanocyte depletion | melanocyte depletion caused by growth factor withdrawal ([1]; three days in culture, no growth factor supplement): markedly reducing melanocyte depletion | repigmentation (vitiligo patches; 0.01% maresin 1 in ethanol twice daily, by the end of three months): significant repigmentation | decrease of lesion area, third lesion (vitiligo patches; 0.01% maresin 1 in ethanol twice daily, three months, 1.0×0.8 cm macule right 4th metacarpal head): 11.1% | decrease of lesion area, second lesion (vitiligo patches; 0.01% maresin 1 in ethanol twice daily, three months, 1.3×1.0 cm patch right third metacarpal head): 10.5% | decrease of lesion area, first lesion (vitiligo patches; 0.01% maresin 1 in ethanol twice daily, three months, 1.5×1.2 cm patch mid right abdomen): 13.6% | adverse events such as irritation, itchiness or redness (vitiligo patches; 0.01% maresin 1 in ethanol, topical twice daily): did no notice any adverse events | decrease of the areas of the three depigmented lesions (overall) (vitiligo patches; ethanol solution containing 0.01% maresin 1 twice daily, three months): 11.7%

CCCCC[C@H](O)/C=C/C=C\C=C\C=C\[C@@H](O)[C@@H](O)CCCC(=O)O [lipoxin A4, reference compound]
pro-survival effects on the melanocytes in vitro ([1]; SPMs 0 to 300 ng/ml, cultured human epidermal melanocytes): significantly decreased melanocyte survival | ability to protect melanocytes [1, 3]: accelerated melanocyte depletion

CC/C=C\C[C@H](O)[C@H](O)/C=C/C=C/C=C\C=C\[C@@H](O)C/C=C\CCC(=O)O [resolvin D2, 7S,16R,17S-trihydroxy-4Z,8E,10Z,12E,14E,19Z-docosahexaenoic acid]
ability to protect melanocytes [1, 3]: show ability to protect melanocytes

CC/C=C\C/C=C\C[C@H](O)[C@H](O)/C=C/C=C/C=C\C/C=C\CCC(=O)O [maresin 2, 13R,14S-dihydroxy-4Z,7Z,9E,11E,16Z,19Z-docosahexaenoic acid]
ability to protect melanocytes [1, 3]: show ability to protect melanocytes
